Laboratory results from PMC11470957, “Principles of paralog-specific targeted protein degradation engaging the C-degron E3 KLHDC2” (Nature Communications, 2024).
“And” between values parts separate entries of the source, which are not always exact repeats. Identical values can stand only once.

What was measured:
BRD3^BD2 = BRD3^BD2 (Homo sapiens, UniProt Q15059); experiment: ITC, binary binding to BRD3^BD2
[1] = biological target: R56A KLHDC2^SBD / BRD3^BD2 (Homo sapiens, UniProt Q15059+Q9Y2U9, R56A); experiment: ITC, ternary complex R56A KLHDC2^SBD with PROTAC-BRD3^BD2
Chain of R56A KLHDC2^SBD / BRD3^BD2 (Q9Y2U9 15-361 R56A): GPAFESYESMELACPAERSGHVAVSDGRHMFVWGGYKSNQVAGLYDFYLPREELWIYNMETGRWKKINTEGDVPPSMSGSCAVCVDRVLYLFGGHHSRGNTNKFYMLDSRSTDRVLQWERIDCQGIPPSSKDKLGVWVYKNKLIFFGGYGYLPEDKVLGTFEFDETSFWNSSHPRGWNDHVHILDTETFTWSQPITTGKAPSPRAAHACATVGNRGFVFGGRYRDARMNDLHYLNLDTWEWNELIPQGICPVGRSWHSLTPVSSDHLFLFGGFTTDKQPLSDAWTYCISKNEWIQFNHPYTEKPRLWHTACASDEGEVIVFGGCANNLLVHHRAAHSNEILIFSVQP
Chain of R56A KLHDC2^SBD / BRD3^BD2 (Q15059 306-416): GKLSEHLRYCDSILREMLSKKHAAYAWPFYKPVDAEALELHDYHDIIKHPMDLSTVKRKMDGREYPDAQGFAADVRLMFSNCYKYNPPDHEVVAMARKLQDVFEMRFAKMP

KLHDC2^SBD / BRD3^BD2 = KLHDC2^SBD / BRD3^BD2 (Homo sapiens, UniProt Q15059+Q9Y2U9); experiment: ITC, ternary complex KLHDC2^SBD with PROTAC-BRD3^BD2
Chain of KLHDC2^SBD / BRD3^BD2 (Q9Y2U9 15-361): as the sequence (Q9Y2U9 15-361 R56A) above, with A42R counted along it
Chain of KLHDC2^SBD / BRD3^BD2 (Q15059 306-416): as the sequence (Q15059 306-416) above

neddylated CRL2^KLHDC2 = neddylated CRL2^KLHDC2 (Homo sapiens, UniProt Q9Y2U9, G405K/S406K); experiment: biochemical
KLHDC2^SBD / BRD2^BD2 = KLHDC2^SBD / BRD2^BD2 (Homo sapiens, UniProt P25440+Q9Y2U9); experiment: ITC, ternary complex KLHDC2^SBD with PROTAC-BRD2^BD2
Chain of KLHDC2^SBD / BRD2^BD2 (Q9Y2U9 15-361): as the sequence (Q9Y2U9 15-361 R56A) above, with A42R counted along it
Chain of KLHDC2^SBD / BRD2^BD2 (P25440 344-455): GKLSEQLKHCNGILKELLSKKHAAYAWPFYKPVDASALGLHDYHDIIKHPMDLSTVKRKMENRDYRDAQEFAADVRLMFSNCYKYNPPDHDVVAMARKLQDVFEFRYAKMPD

[2] = cell: SJ46421, syringe: BRD3^BD2
[3] = cell: SJ46421-BRD3^BD2, syringe: R56A KLHDC2^SBD
[4] = cell: PROTAC-BRD3^BD2, syringe: KLHDC2^SBD
[5] = ITC, syringe KLHDC2, cell BRD2BD2-compound, Rep1, Rep2
[6] = cell: PROTAC-BRD2^BD2, syringe: KLHDC2^SBD

Chain of BRD3^BD2 (Q15059 306-416): as the sequence (Q15059 306-416) above

Compound: Cc1sc2c(c1C)C(c1ccc(Cl)cc1)=N[C@@H](CC(=O)N1CCN(CCOc3cccc4ccc(-c5nc(CC(=O)NCC(=O)O)cs5)cc34)CC1)c1nnc(C)n1-2 [SJ46421]
- Kd (BRD3^BD2; ITC Kd, cell: SJ46421, syringe: BRD3^BD2): 1 ± 0.194 µM
- (-)TDS (BRD3^BD2; ITC, syringe BRD3BD2, cell compound, Rep1, Rep2): 5.34 and 5
- Kd (BRD3^BD2; Kd, Rep1/Rep2, ITC source data Fig4a, syringe BRD3BD2, cell SJ46421): 1.07 µM and 0.908 µM
- ITC -TΔS (BRD3^BD2; [2]): 5.11 +/- 0.24 kcal/mol-1
- ITC N (BRD3^BD2; [2]): 0.9
- ITC ΔH (BRD3^BD2; [2]): -13.5 +/- 0.53 kcal/mol-1
- cooperativity α ([1]; BRD3^BD2, R56A KLHDC2^SBD): 1.7
- Kd ([1]; Kd, Rep1/Rep2, ITC source data Fig4f, syringe R56A KLHDC2, cell SJ46421-BRD3BD2): 0.291 µM and 0.255 µM
- ITC -TΔS (ternary) [1, 3]: -5.02 +/- 0.31 kcal/mol-1
- ITC N (ternary) [1, 3]: 1.1
- ITC ΔG (ternary) [1, 3]: -9.19 +/- 0.03 kcal/mol-1
- ITC ΔH (ternary) [1, 3]: -3.68 +/- 0.03 kcal/mol-1
- ΔG (binary + ternary) (KLHDC2^SBD / BRD3^BD2; BRD3^BD2): -19.9 kcal/mol
- cooperativity α (KLHDC2^SBD / BRD3^BD2; BRD3^BD2, KLHDC2^SBD): 16
- (-)TDS (KLHDC2^SBD / BRD3^BD2; ITC, syringe KLHDC2, cell BRD3BD2-compound (printed BRD2BD3 for SJ46421), Rep1, Rep2): 1.05
- ITC N (ternary) (KLHDC2^SBD / BRD3^BD2; [4]): 0.9
- ITC ΔG (ternary) (KLHDC2^SBD / BRD3^BD2; [4]): -10.8 +/- 0.01 kcal/mol-1
- ITC ΔH (ternary) (KLHDC2^SBD / BRD3^BD2; [4]): -6.65 +/- 0.79 kcal/mol-1
- IC50 (neddylated CRL2^KLHDC2): 2.6 µM
- ΔG (binary + ternary) (KLHDC2^SBD / BRD2^BD2; BRD2^BD2): -18.4 kcal/mol
- (-)TDS (KLHDC2^SBD / BRD2^BD2; [5]): 1.18 and 0.97
- DH (KLHDC2^SBD / BRD2^BD2; [5]): -10.5
- ITC -TΔS (ternary) (KLHDC2^SBD / BRD2^BD2; [6]): 1.08 +/- 0.19 kcal/mol-1
- ITC N (ternary) (KLHDC2^SBD / BRD2^BD2; [6]): 0.9
- ITC ΔG (ternary) (KLHDC2^SBD / BRD2^BD2; [6]): -9.33 +/- 0.05 kcal/mol-1
- ITC ΔH (ternary) (KLHDC2^SBD / BRD2^BD2; [6]): -10.4 +/- 0.10 kcal/mol-1
